Measured values reported in PMC6495176, “Steroidal antibiotics are antimetabolites of Acanthamoeba steroidogenesis with phylogenetic implications” (Journal of Lipid Research, 2019).

Assays:
28-AcSMT [1] = target: T1, 28-AcSMT (Acanthamoeba castellanii, UniProt L8GKC5); test: steady-state inhibition of […]([…])-methylene lophenol methylation by recombinant enzyme, GC-MS; partition ratio and substrate protection; assay type: biochemical
T1 construct: gene ACA1_237870; recombinant 28-AcSMT (XP_004335307) expressed in E. coli, lysate preparation

24-AcSMT [2] = target: T2, 24-AcSMT (Acanthamoeba castellanii, UniProt L8GNG7); test: steady-state inhibition of cycloartenol methylation by recombinant enzyme; also turned over to ERGT (GC-MS); assay type: biochemical
T2 construct: gene ACA1_193300; recombinant 24-AcSMT (XP_004336540) expressed in E. coli, lysate preparation

28-AcSMT [3] = target: T3, 28-AcSMT (Acanthamoeba castellanii, UniProt L8GKC5); test: MALDI-TOF mass shift and retention of 3H-label after Ni-NTA purification; GC-MS of diol products; assay type: binding
T3 construct: gene ACA1_237870
T3 sequence (L8GKC5 1-346): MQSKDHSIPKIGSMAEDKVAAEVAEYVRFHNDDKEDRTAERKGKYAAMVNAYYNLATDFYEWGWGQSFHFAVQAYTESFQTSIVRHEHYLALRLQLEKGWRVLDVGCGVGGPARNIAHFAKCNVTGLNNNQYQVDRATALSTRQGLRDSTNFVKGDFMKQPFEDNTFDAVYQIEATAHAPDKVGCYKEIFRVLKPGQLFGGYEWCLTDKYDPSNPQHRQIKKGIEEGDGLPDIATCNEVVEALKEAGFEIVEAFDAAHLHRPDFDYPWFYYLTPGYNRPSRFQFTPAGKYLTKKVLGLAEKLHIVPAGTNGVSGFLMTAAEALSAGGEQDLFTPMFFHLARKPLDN

24-AcSMT [4] = target: T2, 24-AcSMT; test: native substrate in steady-state SMT assay (Km); assay type: biochemical; settings: cited from earlier work
[5] = substrate: C=C(CC[C@@H](C)[C@H]1CC[C@H]2C3=CC[C@H]4[C@H](C)[C@@H](O)CC[C@]4(C)[C@H]3CC[C@]12C)C(C)C; test: cells, lysate or membranes; assay type: biochemical, Acanthamoeba castellanii; settings: SAM active site

T2 sequence (L8GNG7 entry or part of it): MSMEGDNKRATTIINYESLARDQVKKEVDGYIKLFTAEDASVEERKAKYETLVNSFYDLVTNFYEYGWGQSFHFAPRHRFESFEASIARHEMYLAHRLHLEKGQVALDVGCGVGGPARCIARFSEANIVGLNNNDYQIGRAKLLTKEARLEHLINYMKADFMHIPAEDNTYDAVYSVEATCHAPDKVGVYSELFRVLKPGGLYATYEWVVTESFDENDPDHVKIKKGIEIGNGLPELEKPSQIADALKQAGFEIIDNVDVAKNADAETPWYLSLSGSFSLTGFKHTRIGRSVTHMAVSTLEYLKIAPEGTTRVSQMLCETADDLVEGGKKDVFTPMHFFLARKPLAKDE

## CC(C)=C/C=C/[C@@H](C)[C@H]1CC[C@H]2C3=CC=C4C[C@@H](O)CC[C@]4(C)[C@H]3CC[C@]12C [CHT]
28-AcSMT [1]
  Ki: 8 µM
24-AcSMT [2]
  Ki: 18 µM

## C=C(/C=C/[C@@H](C)[C@H]1CC[C@H]2C3=CC=C4C[C@@H](O)CC[C@]4(C)[C@H]3CC[C@]12C)C(C)C [compound 15, ergosta-5,7,22,24(28)-tetraen-3-ol]
28-AcSMT [3]
  MALDI-TOF mass shift and retention of 3H-label after Ni-NTA purification; GC-MS: irreversible nature of the ERGT-28-AcSMT complex was further confirmed by MALDI-TOF analysis showing an increase in molecular mass

## CC(C)=CCC[C@@H](C)[C@H]1CC[C@@]2(C)[C@@H]3CC[C@H]4C(C)(C)[C@@H](O)CC[C@@]45C[C@@]35CC[C@]12C [cycloartenol]
24-AcSMT [4]
  Km: 48 µM

B1: 28-AcSMT (Acanthamoeba castellanii str. Neff) (protein)
chain: T3 sequence (L8GKC5 1-346)
notes: recombinant 28-AcSMT (XP_004335307) expressed in E. coli, lysate preparation
[5]
  Km: 44 µM
